≈ marks a conversion by molar mass, not a printed value.
Legend:
[1] = system: Mycobacterium tuberculosis; test: Antimycobacterial activity against Mycobacterium tuberculosis H37Rv; format: functional, organism-based
[2] = system: Mycobacterium tuberculosis; test: Bactericidal activity against Mycobacterium tuberculosis H37Rv; format: functional
[3] = system: Mycobacterium tuberculosis; test: Antimycobacterial activity against p-aminosalicyclic acid-resistant Mycobacterium tuberculosis H37Rv ATCC 35821; format: functional
[4] = system: Mycobacterium tuberculosis; test: Antimycobacterial activity against Mycobacterium tuberculosis H37Ra by microplate alamar blue assay; format: functional
[5] = system: Mycobacterium tuberculosis; test: Antimycobacterial activity against Mycobacterium tuberculosis H37Rv ATCC 27294 by microplate alamar blue assay; format: functional
[6] = system: Mycobacterium tuberculosis; test: Antimycobacterial activity against Mycobacterium tuberculosis H37Rv ATCC 27294 after 5 days by microplate alamar blue assay; format: functional; conditions: H37Rv ATCC 27294, 120 h
[7] = system: Mycobacterium tuberculosis; test: Antimycobacterial activity against Mycobacterium tuberculosis H37Rv after 7 days by microplate alamar blue assay; format: functional; conditions: 168 h
[8] = system: Mycobacterium tuberculosis; test: Antimycobacterial activity against Mycobacterium tuberculosis H37Rv ATCC 27294 by BACTEC-460 radiometric susceptibility assay; format: functional

Row | Compound | IC50 [1] [µM] | IC90 [1] [µM] | MIC [1] [µM] | further results
1 | COC(=O)[C@]12CCC(C)(C)C[C@@H]1C1/C(=N/O)C[C@@H]3[C@@]4(C)CCC(=O)NC(C)(C)[C@@H]4CC[C@@]3(C)[C@]1(C)CC2 (some centres undefined) | 54 | 97 | 97 (≈ 49.9 µg/mL) | 
2 | C=C(C)[C@@H]1CC[C@]2(COC(=O)/C=C/c3ccc(OC)cc3)CC[C@]3(C)[C@H](CC[C@@H]4[C@@]5(C)CCCNC(C)(C)[C@@H]5CC[C@]43C)[C@@H]12 | 160 | > 200 | > 200 | 
3 | C=C(C)[C@@H]1CC[C@]2(CO)CC[C@]3(C)[C@H](CC[C@@H]4[C@@]5(C)CCCNC(C)(C)[C@@H]5CC[C@]43C)[C@@H]12 | 10.9 | 12.4 | 10 (≈ 4.42 µg/mL) | MBC [2]: 10 µg/mL (≈ 22.6 µM); MIC [3]: 5 µg/mL (≈ 11.3 µM)
4 | CC1(C)CC[C@@]23CC[C@]4(C)C(OC2)(C(=O)C[C@@H]2[C@@]5(C)CCCNC(C)(C)[C@@H]5CC[C@]24C)[C@H]3C1 | 11 | 53 | 29 (≈ 13.2 µg/mL) | 
5 | C=C(C)[C@@H]1CC[C@]2(C(=O)O)CC[C@]3(C)[C@H](CC[C@@H]4[C@@]5(C)CC[C@H](OC(=O)/C=C/c6ccc(O)cc6)C(C)(C)[C@@H]5CC[C@]43C)[C@@H]12 |  |  |  | MIC [4]: 6.25 µg/mL (≈ 10.4 µM)
6 | COC(=O)[C@]12CC[C@@H](C(C)CO)[C@@H]1[C@H]1CC[C@@H]3[C@@]4(C)CCC(=O)NC(C)(C)[C@@H]4CC[C@@]3(C)[C@]1(C)CC2 (some centres undefined) | 5.7 | 18.3 | 12.5 (≈ 6.27 µg/mL) | 
7 | C=C(C)[C@@H]1CC[C@]2(C(=O)OC)CC[C@]3(C)[C@H](CC[C@@H]4[C@@]5(C)CCC(=O)NC(C)(C)[C@@H]5CC[C@]43C)[C@@H]12 |  |  | > 10 | 
8 | C=C(C)[C@@H]1CC[C@]2(COC(=O)CCC(=O)O)CC[C@]3(C)[C@H](CC[C@@H]4[C@@]5(C)CCCNC(C)(C)[C@@H]5CC[C@]43C)[C@@H]12 | 40 | 70 | 61 (≈ 33.1 µg/mL) | MBC [2]: 11 µg/mL (≈ 20.3 µM)
9 | C/C(=N\O)[C@@H]1CC[C@]2(CO)CC[C@]3(C)[C@H](CC[C@@H]4[C@@]5(C)CCCNC(C)(C)[C@@H]5CC[C@]43C)[C@@H]12 | 43 | 41 | 43 (≈ 19.7 µg/mL) | 
10 | CC1(C)CC[C@]2(C(=O)O)CC[C@]3(C)C(=CC[C@@H]4[C@@]5(C)CC[C@H](OC(=O)/C=C/c6ccc(O)cc6)C(C)(C)[C@@H]5CC[C@]43C)[C@@H]2C1 |  |  |  | MIC [4]: 6.25 µg/mL (≈ 10.4 µM)
11 | COC(=O)[C@]12CC[C@@H](C(C)COC(=O)/C=C/c3ccccc3)[C@@H]1[C@H]1CC[C@@H]3[C@@]4(C)CCC(=O)NC(C)(C)[C@@H]4CC[C@@]3(C)[C@]1(C)CC2 (some centres undefined) | > 200 | > 200 | > 200 | 
12 | C=C(C)[C@@H]1CC[C@]2(C(=O)O)CC[C@]3(C)[C@H](CC[C@@H]4[C@@]5(C)CC[C@H](O)C(C)(C)[C@@H]5CC[C@]43C)[C@@H]12 [BETULINIC ACID] |  |  |  | MIC [5]: 62 µg/mL (≈ 136 µM); MIC [4]: 50 µg/mL (≈ 109 µM); MIC [6]: > 100 µg/mL; MIC90 [7]: 25 µg/mL (≈ 54.7 µM)
13 | NNC(=O)c1ccncc1 [ISONIAZID] | 0.12 | 0.19 | 0.31 (≈ 0.0425 µg/mL) | 
14 | C=C(C)[C@@H]1CC[C@]2(C)CC[C@]3(C)[C@H](CC[C@@H]4[C@@]5(C)CC[C@H](O)C(C)(C)[C@@H]5CC[C@]43C)[C@@H]12 [LUPEOL] |  |  |  | MIC90 [5]: > 64 µg/mL
15 | C[C@H]1[C@H](C)CC[C@]2(CO)CC[C@]3(C)C(=CC[C@@H]4[C@@]5(C)CCCNC(C)(C)[C@@H]5CC[C@]43C)[C@@H]12 | 4.9 | 14.5 | 12.5 (≈ 5.52 µg/mL) | MBC [2]: 20 µg/mL (≈ 45.3 µM)
16 | COC(=O)[C@]12CC[C@@H](C)[C@H](C)[C@@H]1C1=CC[C@@H]3[C@@]4(C)CCC(=O)NC(C)(C)[C@@H]4CC[C@@]3(C)[C@]1(C)CC2 |  |  | > 10 | 
17 | C[C@H]1[C@H](C)CC[C@]2(C(=O)O)CC[C@]3(C)C(=CC[C@@H]4[C@@]5(C)CC[C@H](O)C(C)(C)[C@@H]5CC[C@]43C)[C@H]12 [URSOLIC ACID] |  |  |  | MIC99 [1]: 100 µg/mL (≈ 219 µM); MIC99 [8]: 50 µg/mL (≈ 109 µM)
18 | N[C@@H]1CONC1=O [CYCLOSERINE] | 20.8 | 33.1 | 50 (≈ 5.1 µg/mL) | 
19 | C=C(C)[C@@H]1CC[C@]2(CO)CC[C@]3(C)[C@H](CC[C@@H]4[C@@]5(C)CCCN(CCCN)C(C)(C)[C@@H]5CC[C@]43C)[C@@H]12 |  |  | > 10 | 
20 | NCC[C@H](O)C(=O)N[C@@H]1C[C@H](N)[C@@H](O[C@H]2O[C@H](CN)[C@@H](O)[C@H](O)[C@H]2O)[C@H](O)[C@H]1O[C@H]1O[C@H](CO)[C@@H](O)[C@H](N)[C@H]1O [AMIKACIN] | 0.08 | 0.09 | 0.16 (≈ 0.0937 µg/mL) | 
21 | CC1(C)CC[C@]2(COC(=O)CCC(=O)O)CC[C@]3(C)C(=CC[C@@H]4[C@@]5(C)CCCNC(C)(C)[C@@H]5CC[C@]43C)[C@H]2C1 | 20.6 | 82.5 | 100 (≈ 54.2 µg/mL) | 

Row | Compound | IC50 [1] [µM] | IC90 [1] [µM] | MIC [1] [µM] | further results
22 | CC[C@@H](CO)NCCN[C@@H](CC)CO [ETHAMBUTOL] | 1.25 | 1.78 | 6.25 (≈ 1.28 µg/mL) | 
23 | CC(CO)[C@@H]1CC[C@]2(CO)CC[C@]3(C)[C@H](CC[C@@H]4[C@@]5(C)CCCNC(C)(C)[C@@H]5CC[C@]43C)[C@@H]12 (some centres undefined) | 4.6 | 14.1 | 12.5 (≈ 5.75 µg/mL) | 
24 | COc1cc(/C=C/C(=O)O)ccc1O.C[C@H]1[C@H](C)CC[C@]2(C(=O)O)CC[C@]3(C)C(=CC[C@@H]4[C@@]5(C)CC[C@H](O)C(C)(C)[C@@H]5CC[C@]43C)[C@H]12 |  |  |  | MIC [4]: 3.13 µg/mL
25 | C=C(C)[C@@H]1CC[C@]2(C(=O)O)CC[C@]3(C)[C@H](CC[C@@H]4[C@@]5(C)C[C@@H](O)[C@H](O)C(C)(C)[C@@H]5CC[C@]43C)[C@@H]12 [ALPHITOLIC ACID] |  |  |  | MIC90 [7]: 12.5 µg/mL (≈ 26.4 µM)
26 | COc1ccc(/C=C/C(=O)OC[C@]23CC[C@@H](C)[C@H](C)[C@@H]2C2=CC[C@@H]4[C@@]5(C)CCCNC(C)(C)[C@@H]5CC[C@@]4(C)[C@]2(C)CC3)cc1 | 1.8 | 2.5 | 3.12 (≈ 1.88 µg/mL) | MBC [2]: 12 µg/mL (≈ 19.9 µM)
27 | C=C(C)[C@@H]1CC[C@]2(CO)CC[C@]3(C)[C@H](CC[C@@H]4[C@@]5(C)CC[C@H](O)C(C)(C)[C@@H]5CC[C@]43C)[C@@H]12 [BETULIN] |  |  |  | MIC90 [7]: 25 to 30 µg/mL (≈ 56.5 to 67.8 µM)
28 | CO[C@H]1/C=C/O[C@@]2(C)Oc3c(C)c(O)c4c(O)c(c(/C=N/N5CCN(C)CC5)c(O)c4c3C2=O)NC(=O)/C(C)=C\C=C\[C@H](C)[C@H](O)[C@@H](C)[C@@H](O)[C@@H](C)[C@H](OC(C)=O)[C@@H]1C [RIFAMPIN] | 0.02 | 0.03 | 0.04 (≈ 0.0329 µg/mL) | 
29 | C[C@H]1[C@H](C)CC[C@]2(COC(=O)CCC(=O)O)CC[C@]3(C)C(=CC[C@@H]4[C@@]5(C)CCCNC(C)(C)[C@@H]5CC[C@]43C)[C@@H]12 | 92 | 110 | 111 (≈ 60.1 µg/mL) | 
30 | COC(=O)[C@]12CCC(C)(C)C[C@@H]1C1=CC[C@@H]3[C@@]4(C)CCC(=O)NC(C)(C)[C@@H]4CC[C@@]3(C)[C@]1(C)CC2 |  |  | > 10 | 
31 | CC(COC(=O)/C=C/c1ccccc1)[C@@H]1CC[C@]2(COC(=O)/C=C/c3ccccc3)CC[C@]3(C)[C@H](CC[C@@H]4[C@@]5(C)CCCNC(C)(C)[C@@H]5CC[C@]43C)[C@@H]12 (some centres undefined) | > 200 | > 200 | 200 (≈ 144 µg/mL) | 
32 | CC1(C)CC[C@]2(CO)CC[C@]3(C)C(=CC[C@@H]4[C@@]5(C)CCCNC(C)(C)[C@@H]5CC[C@]43C)[C@H]2C1 | 3.8 | 11.5 | 12.5 (≈ 5.52 µg/mL) | MBC [2]: 20 µg/mL (≈ 45.3 µM)
33 | CC(=O)[C@@H]1CC[C@]2(CO)CC[C@]3(C)[C@H](CC[C@@H]4[C@@]5(C)CCCNC(C)(C)[C@@H]5CC[C@]43C)[C@@H]12 | 17.7 | 56.9 | 50 (≈ 22.2 µg/mL) | 
34 | COC(=O)[C@]12CC[C@@H](C(C)COC(=O)CCC(=O)O)[C@@H]1[C@H]1CC[C@@H]3[C@@]4(C)CCC(=O)NC(C)(C)[C@@H]4CC[C@@]3(C)[C@]1(C)CC2 (some centres undefined) | 23 | 27 | 28 (≈ 16.9 µg/mL) | 
35 | COc1ccc(/C=C/C(=O)OC[C@]23CCC(C)(C)C[C@@H]2C2=CC[C@@H]4[C@@]5(C)CCCNC(C)(C)[C@@H]5CC[C@@]4(C)[C@]2(C)CC3)cc1 | > 100 | > 100 | > 100 | 
36 | C=C(C)[C@@H]1CC[C@]2(COC(=O)/C=C/c3ccccc3)CC[C@]3(C)[C@H](CC[C@@H]4[C@@]5(C)CCCNC(C)(C)[C@@H]5CC[C@]43C)[C@@H]12 | 6.7 | 7.7 | 10 (≈ 5.72 µg/mL) | MBC [2]: 4 µg/mL (≈ 6.99 µM)
37 | CCc1nc(N)nc(N)c1-c1ccc(Cl)cc1 [PYRIMETHAMINE] | 23.3 | 35.9 | 50 (≈ 12.4 µg/mL) | 
38 | C[C@H]1[C@H](C)CC[C@]2(COC(=O)/C=C/c3ccccc3)CC[C@]3(C)C(=CC[C@@H]4[C@@]5(C)CCCNC(C)(C)[C@@H]5CC[C@]43C)[C@@H]12 | 3.8 | 5.2 | 6.25 (≈ 3.57 µg/mL) | MBC [2]: 14 µg/mL (≈ 24.5 µM)
39 | CC1(C)CC[C@]2(COC(=O)/C=C/c3ccccc3)CC[C@]3(C)C(=CC[C@@H]4[C@@]5(C)CCCNC(C)(C)[C@@H]5CC[C@]43C)[C@H]2C1 | 8 | 12 | 12 (≈ 6.86 µg/mL) | MBC [2]: 12 µg/mL (≈ 21 µM)
40 | C[C@H]1[C@H](C)CC[C@]2(C(=O)O)CC[C@]3(C)C(=CC[C@@H]4[C@@]5(C)CC[C@H](OC(=O)/C=C/c6ccc(O)cc6)C(C)(C)[C@@H]5CC[C@]43C)[C@H]12 |  |  |  | MIC [4]: 6.25 µg/mL (≈ 10.4 µM)
41 | CC1(C)CC[C@]2(C(=O)O)CC[C@]3(C)C(=CC[C@@H]4[C@@]5(C)CC[C@H](O)C(C)(C)[C@@H]5CC[C@]43C)[C@@H]2C1 [OLEANOLIC_ACID] |  |  |  | MIC [4]: 25 µg/mL (≈ 54.7 µM); MIC [6]: 50 µg/mL (≈ 109 µM)

Reference: ChEMBL document CHEMBL4251581, “Synthesis and antimycobacterial activity of triterpeni≿ A-ring azepanes” (Eur J Med Chem, 2018)
